We go through 26 compounds from US9932314B2, “Pyrazole compounds and their use as T-type calcium channel blockers” (IDORSIA PHARMACEUTICALS LTD, priority 2015, dated 2018).

This experiment deals with T1, voltage-dependent T-type calcium channel subunit alpha-1G (Cav3.2) (Homo sapiens, UniProt O95180).
T1 construct: expressed in transfected cells; host or cells: HEK293
Put plainly: FLIPR calcium flux assay, HEK293 cells recombinantly expressing Cav3.2. It is filed as cell-based. Conditions: Cav3.2-channel, Fluo-4-AM, 3 min incubation, stimulation with 10 mM CaCl2. Put shortly:
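Calcium influx was triggered by adding CaCl2 to 10 mM final, 3 min after compounds in tetraethylammonium-based buffer, pH 7.2, reached Fluo-4-AM-loaded recombinant HEK293 cells. The integrated kinetic fluorescence signal per concentration gave concentration-response curves by non-linear sigmoidal regression.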
On the technique in general: A change in cytosolic calcium serves as a functional read-out for many receptors and channels.

As a reminder, the IC50 is the concentration at which inhibition is half-maximal.

T1 sequence (O95180 whole entry): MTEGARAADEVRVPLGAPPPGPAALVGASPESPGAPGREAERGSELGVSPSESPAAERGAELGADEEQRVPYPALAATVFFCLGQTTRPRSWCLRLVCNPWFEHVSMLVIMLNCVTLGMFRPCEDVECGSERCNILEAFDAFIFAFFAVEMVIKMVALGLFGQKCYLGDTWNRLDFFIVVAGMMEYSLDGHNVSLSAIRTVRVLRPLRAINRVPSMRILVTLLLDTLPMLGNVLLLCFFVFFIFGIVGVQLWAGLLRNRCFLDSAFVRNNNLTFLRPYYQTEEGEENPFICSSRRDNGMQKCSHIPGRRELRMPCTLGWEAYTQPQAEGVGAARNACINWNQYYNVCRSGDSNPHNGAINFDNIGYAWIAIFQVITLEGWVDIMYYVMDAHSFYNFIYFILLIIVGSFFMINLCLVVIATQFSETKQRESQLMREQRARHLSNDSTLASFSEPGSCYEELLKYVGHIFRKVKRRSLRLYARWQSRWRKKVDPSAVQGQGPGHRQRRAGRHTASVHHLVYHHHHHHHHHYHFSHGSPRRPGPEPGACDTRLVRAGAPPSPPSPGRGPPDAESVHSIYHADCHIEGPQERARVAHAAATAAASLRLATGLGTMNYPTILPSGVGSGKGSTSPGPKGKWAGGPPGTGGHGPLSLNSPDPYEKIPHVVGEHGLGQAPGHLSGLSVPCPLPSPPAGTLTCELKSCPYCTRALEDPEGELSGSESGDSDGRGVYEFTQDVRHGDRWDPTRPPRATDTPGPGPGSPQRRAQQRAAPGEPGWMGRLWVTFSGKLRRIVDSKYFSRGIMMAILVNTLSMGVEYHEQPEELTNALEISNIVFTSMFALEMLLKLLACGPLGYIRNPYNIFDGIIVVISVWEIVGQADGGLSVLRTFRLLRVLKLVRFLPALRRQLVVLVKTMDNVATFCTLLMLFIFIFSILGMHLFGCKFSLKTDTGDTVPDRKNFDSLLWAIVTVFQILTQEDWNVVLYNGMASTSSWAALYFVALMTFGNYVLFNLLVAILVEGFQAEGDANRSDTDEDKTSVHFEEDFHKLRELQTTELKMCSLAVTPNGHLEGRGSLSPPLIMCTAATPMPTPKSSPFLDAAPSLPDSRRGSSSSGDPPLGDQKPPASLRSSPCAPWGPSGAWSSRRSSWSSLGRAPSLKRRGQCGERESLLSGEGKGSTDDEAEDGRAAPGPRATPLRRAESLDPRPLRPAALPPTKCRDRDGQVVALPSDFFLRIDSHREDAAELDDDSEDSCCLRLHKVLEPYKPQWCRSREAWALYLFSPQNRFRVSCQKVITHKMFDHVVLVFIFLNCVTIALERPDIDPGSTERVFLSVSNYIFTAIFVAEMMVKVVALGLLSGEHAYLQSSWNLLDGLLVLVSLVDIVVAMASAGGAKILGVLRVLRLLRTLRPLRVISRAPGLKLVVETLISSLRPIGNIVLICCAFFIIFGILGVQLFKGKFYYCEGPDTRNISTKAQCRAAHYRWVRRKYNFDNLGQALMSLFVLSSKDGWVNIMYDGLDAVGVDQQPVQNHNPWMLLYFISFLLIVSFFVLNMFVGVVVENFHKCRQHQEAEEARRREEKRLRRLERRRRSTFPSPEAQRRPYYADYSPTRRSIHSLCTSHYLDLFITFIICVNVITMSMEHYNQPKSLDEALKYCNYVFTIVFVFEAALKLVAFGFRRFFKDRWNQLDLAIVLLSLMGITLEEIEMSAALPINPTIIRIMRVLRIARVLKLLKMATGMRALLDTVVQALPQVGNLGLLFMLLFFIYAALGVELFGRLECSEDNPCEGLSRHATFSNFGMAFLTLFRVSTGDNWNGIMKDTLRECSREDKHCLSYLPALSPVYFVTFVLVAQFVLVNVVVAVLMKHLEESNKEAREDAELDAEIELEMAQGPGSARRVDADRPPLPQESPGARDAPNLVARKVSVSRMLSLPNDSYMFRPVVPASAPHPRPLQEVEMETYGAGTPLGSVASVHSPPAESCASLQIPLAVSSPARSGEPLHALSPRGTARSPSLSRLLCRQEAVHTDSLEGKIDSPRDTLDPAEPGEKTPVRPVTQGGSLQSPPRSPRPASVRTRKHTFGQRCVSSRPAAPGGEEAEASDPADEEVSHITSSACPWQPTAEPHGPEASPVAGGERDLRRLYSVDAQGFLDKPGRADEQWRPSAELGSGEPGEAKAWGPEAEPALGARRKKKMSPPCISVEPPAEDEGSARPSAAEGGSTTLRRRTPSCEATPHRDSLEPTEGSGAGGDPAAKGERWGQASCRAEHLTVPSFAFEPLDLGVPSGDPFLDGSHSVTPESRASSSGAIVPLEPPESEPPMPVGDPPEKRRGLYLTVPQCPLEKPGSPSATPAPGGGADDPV

Take `CN(CC(F)F)c1ccc(CC(=O)Nc2ccn(Cc3ccc(C#N)cn3)n2)cn1` [Example 151, N-[1-(5-Cyano-pyridin-2-ylmethyl)-1H-pyrazol-3-yl]-2-{6-[(2,2-difluoro-ethyl)-methyl-amino]-pyridin-3-yl}-acetamide]: the IC50 came to 649 nM.

Consider `N#Cc1ccc(Cn2ccc(NC(=O)Cc3ccc(N4CC[C@H](F)C4)nc3)n2)nc1` [Example 152, N-[1-(5-Cyano-pyridin-2-ylmethyl)-1H-pyrazol-3-yl]-2-[6-((S)-3-fluoro-pyrrolidin-1-yl)-pyridin-3-yl]-acetamide], for which the IC50 is 1160 nM.

Turning to `N#Cc1ccc(Cn2ccc(NC(=O)Cc3ccc(N4CC[C@H](F)C4)nc3)n2)cc1` [Example 154, N-[1-(4-Cyano-benzyl)-1H-pyrazol-3-yl]-2-[6-((S)-3-fluoro-pyrrolidin-1-yl)-pyridin-3-yl]-acetamide], the IC50 was found to be 78 nM.

In the case of `O=C(Cc1ccc(N2CC[C@H](F)C2)nc1)Nc1ccn(Cc2ccc(F)cc2)n1` [Example 155, N-[1-(4-Fluoro-benzyl)-1H-pyrazol-3-yl]-2-[6((S)-3-fluoro-pyrrolidin-1-yl)-pyridin-3-yl]-acetamide], the IC50 came to 70 nM.

With `COc1ccc(Cn2ccc(NC(=O)Cc3ccc(N4CC[C@H](F)C4)nc3)n2)cc1` [Example 156, 2-[6-((S)-3-Fluoro-pyrrolidin-1-yl)-pyridin-3-yl]-N-[1-(4-methoxy-benzyl)-1H-pyrazol-3-yl]-acetamide], the IC50 is 179 nM.

Consider `CC(C)c1ccc(CC(=O)Nc2ccn(Cc3cc(Cl)c(C#N)cn3)n2)cc1` [Example 157, N-[1-(4-Chloro-5-cyano-pyridin-2-ylmethyl)-1H-pyrazol-3-yl]-2-(4-isopropyl-phenyl)-acetamide], for which the IC50 was determined as 34 nM.

On to `O=C(Cc1ccc(CC2CC2)cc1)Nc1ccn(Cc2ccc(F)cc2)n1` [Example 158, 2-(4-Cyclopropylmethyl-phenyl)-N-[1-(4-fluoro-benzyl)-1H-pyrazol-3-yl]-acetamide], for which the IC50 worked out at 11 nM.

On to `N#Cc1ccc(Cn2ccc(NC(=O)Cc3ccc(N4CC(F)C4)nc3)n2)nc1` [Example 159, N-[1-(5-Cyano-pyridin-2-ylmethyl)-1H-pyrazol-3-yl]-2-[6-(3-fluoro-azetidin-1-yl)-pyridin-3-yl]-acetamide], for which the IC50 worked out at 1180 nM.

As to `O=C(Cc1ccc(N2CC(F)C2)nc1)Nc1ccn(Cc2ccc(F)c(F)c2)n1` [Example 160, N-[1-(3,4-Difluoro-benzyl)-1H-pyrazol-3-yl]-2-[6-(3-fluoro-azetidin-1-yl)-pyridin-3-yl]-acetamide], the IC50 amounted to 29 nM.

For the compound `N#Cc1ccc(Cn2ccc(NC(=O)Cc3ccc(N4CC(F)C4)nc3)n2)cc1` [Example 161, N-[1-(4-Cyano-benzyl)-1H-pyrazol-3-yl]-2-[6-(3-fluoro-azetidin-1-yl)-pyridin-3-yl]-acetamide], the IC50 was 258 nM.

Take `O=C(Cc1ccc(N2CC(F)C2)nc1)Nc1ccn(Cc2ccc(F)cc2)n1` [Example 162, 2-[6-(3-Fluoro-azetidin-1-yl)-pyridin-3-yl]-N-[1-(4-fluoro-benzyl)-1H-pyrazol-3-yl]-acetamide]: the IC50 was determined as 64 nM.

`COc1ccc(Cn2ccc(NC(=O)Cc3ccc(N4CC(F)C4)nc3)n2)cc1` [Example 163, 2-[6-(3-Fluoro-azetidin-1-yl)-pyridin-3-yl]-N-[1-(4-methoxy-benzyl)-1H-pyrazol-3-yl]-acetamide]: the IC50 was 345 nM.

As for `CN(c1ccc(CC(=O)Nc2ccn(Cc3ccc(C#N)cn3)n2)cn1)C1CC1` [Example 164, N-[1-(5-Cyano-pyridin-2-ylmethyl)-1H-pyrazol-3-yl]-2-[6-(cyclopropyl(methyl)amino)-pyridin-3-yl]-acetamide], the IC50 is 568 nM.

Take `CN(c1ccc(CC(=O)Nc2ccn(Cc3ccc(F)c(F)c3)n2)cn1)C1CC1` [Example 165, 2-[6-(Cyclopropyl(methyl)amino)-pyridin-3-yl]-N-[1-(3,4-difluoro-benzyl)-1H-pyrazol-3-yl]-acetamide]: the IC50 was found to be 13 nM.

Consider `CN(c1ccc(CC(=O)Nc2ccn(Cc3ccc(C#N)cc3)n2)cn1)C1CC1` [Example 166, N-[1-(4-Cyano-benzyl)-1H-pyrazol-3-yl]-2-[6-(cyclopropyl(methyl)amino)-pyridin-3-yl]-acetamide], for which the IC50 turned out to be 86 nM.

Take `CN(c1ccc(CC(=O)Nc2ccn(Cc3ccc(F)cc3)n2)cn1)C1CC1` [Example 167, 2-[6-(Cyclopropyl(methyl)amino)-pyridin-3-yl]-N-[1-(4-fluoro-benzyl)-1H-pyrazol-3-yl]-acetamide]: the IC50 amounted to 21 nM.

Consider `COc1ccc(Cn2ccc(NC(=O)Cc3ccc(N(C)C4CC4)nc3)n2)cc1` [Example 168, 2-[6-(Cyclopropyl(methyl)amino)-pyridin-3-yl]-N-[1-(4-methoxy-benzyl)-1H-pyrazol-3-yl]-acetamide], for which the IC50 was 113 nM.

For the compound `Cc1cc(Cn2ccc(NC(=O)Cc3ccc(C(C)C)cc3)n2)ncc1C#N` [Example 169, N-[1-(5-Cyano-4-methyl-pyridin-2-ylmethyl)-1H-pyrazol-3-yl]-2-(4-isopropyl-phenyl)-acetamide], the IC50 is 104 nM.

`CC(C)c1ccc(CC(=O)Nc2ccn(Cc3cc(C4CC4)c(C#N)cn3)n2)cc1` [Example 170, N-[1-(5-Cyano-4-cyclopropyl-pyridin-2-ylmethyl)-1H-pyrazol-3-yl]-2-(4-isopropyl-phenyl)-acetamide]: the IC50 is 191 nM.

In the case of `CCN(C)c1ccc(CC(=O)Nc2ccn(Cc3ccc(C#N)cn3)n2)cn1` [Example 171, N-[1-(5-Cyano-pyridin-2-ylmethyl)-1H-pyrazol-3-yl]-2-[6-(ethyl-methyl-amino)-pyridin-3-yl]-acetamide], the IC50 is 980 nM.

With `CCN(C)c1ccc(CC(=O)Nc2ccn(Cc3ccc(F)c(F)c3)n2)cn1` [Example 172, N-[1-(3,4-Difluoro-benzyl)-1H-pyrazol-3-yl]-2-[6-(ethyl-methyl-amino)-pyridin-3-yl]-acetamide], the IC50 came to 15 nM.

With `CCN(C)c1ccc(CC(=O)Nc2ccn(Cc3ccc(C#N)cc3)n2)cn1` [Example 173, N-[1-(4-Cyano-benzyl)-1H-pyrazol-3-yl]-2-[6-(ethyl-methyl-amino)-pyridin-3-yl]-acetamide], the IC50 is 188 nM.

Take `CCN(C)c1ccc(CC(=O)Nc2ccn(Cc3ccc(OC)cc3)n2)cn1` [Example 174, 2-[6-(Ethyl-methyl-amino)-pyridin-3-yl]-N-[1-(4-methoxy-benzyl)-1H-pyrazol-3-yl]-acetamide]: the IC50 worked out at 319 nM.

Regarding `O=C(Cc1ccc(N2CCCC2)nc1)Nc1ccn(Cc2ccc(F)c(F)c2)n1` [Example 175, N-[1-(3,4-Difluoro-benzyl)-1H-pyrazol-3-yl]-2-(6-pyrrolidin-1-yl-pyridin-3-yl)-acetamide], the IC50 amounted to 17 nM.

Consider `N#Cc1ccc(Cn2ccc(NC(=O)Cc3ccc(N4CCCC4)nc3)n2)cc1` [Example 176, N-[1-(4-Cyano-benzyl)-1H-pyrazol-3-yl]-2-(6-pyrrolidin-1-yl-pyridin-3-yl)-acetamide], for which the IC50 stood at 67 nM.

With `O=C(Cc1ccc(N2CCCC2)nc1)Nc1ccn(Cc2ccc(F)cc2)n1` [Example 177, N-[1-(4-Fluoro-benzyl)-1H-pyrazol-3-yl]-2-(6-pyrrolidin-1-yl-pyridin-3-yl)-acetamide], the IC50 is 18 nM.
